{"source": "patent US11938153B2", "about": "“Methods of treating T cell exhaustion by inhibiting or modulating T cell receptor signaling” (THE BOARD OF TRUSTEES OF THE LELAND STANFORD JUNIOR …, priority 2017, dated 2024)", "key": {"NALM6-GL-GD2": {"test_system": "NALM6-GL-GD2", "conditions": "mice that received TMP", "description": "At day 7 post-engraftment, 1-5×10^6 GD2.28z.DHFR or HA-GD2.28z.DHFR CAR+ T cells were infused intravenously.\nMice were then injected with either stabilizing drug or vehicle control every day thereafter.\nTo test this, antigen-bearing tumor cells were engrafted into NSG mice and subsequently infused 2-5E6 HA-GD2.28z.DHFR-expressing T cells. Mice were dosed with TMP everyday thereafter."}, "GD2.28z.FKBP CAR T cells [1]": {"test_system": "GD2.28z.FKBP CAR T cells", "test": "IL-2 secretion of GD2.28z.FKBP CAR T cells in co-culture with Nalm6 cells expressing GD2 (ELISA)", "type": "cell-based, human", "description": "Because phenotypic markers may not be entirely predictive of T cell function, we also performed functional experiments on CAR T cells provided transient drug exposure in culture. CAR T cells were washed, resuspended in media containing S1, and mixed at a 1:1 ratio with Nalm6 leukemic cells stably expressing surface GD2. Culture supernatants were harvested approximately 24 hours later and cytokine levels were evaluated via ELISA.\nSimilar to GD2.28z CAR that lacks a destabilization domain and therefore have persistent high levels of CAR signaling, cells expressing the GD2.28z.FKBP CAR that experienced continuous drug treatment (FIG. 4, grey bars) secreted minimal amounts of IL-2 on both day 10 and day 14 post-activation, consistent with T cell exhaustion."}, "GD2.28z.FKBP CAR": {"molecular_target": "T1, GD2.28z.FKBP CAR (Homo sapiens, UniProt P62942, E32G/F37V/K106E/R72G)", "T1 construct": "expressed in transfected cells; host or cells: T cells, lentiviral transduction", "T1 sequence (P62942 2-108 E32G/F37V/R72G/K106E)": "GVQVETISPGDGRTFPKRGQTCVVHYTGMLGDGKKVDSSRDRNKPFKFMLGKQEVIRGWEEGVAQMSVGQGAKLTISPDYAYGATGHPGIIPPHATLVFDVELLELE", "test": "Regulation of GD2.28z.FKBP CAR surface expression by shield-1 (FACS)", "type": "cell-based", "conditions": "adding or subtracting S1 in culture medium", "excerpt": "FIG. 1: Characterization of the GD2.28z.FKBP CAR. T cells were transduced with lentivirus encoding the GD2.28z.FKBP CAR on day 1 after activation and subsequently cultured with various concentrations of shield-1 in the growth medium. On day 7, CAR expression was quantified via FACS."}, "Her2.28z.FKBP": {"molecular_target": "T2, Her2.28z.FKBP (Homo sapiens, UniProt P62942, E32G/F37V/K106E/R72G)", "T2 construct": "expressed in transfected cells; host or cells: T cells, lentiviral transduction", "T2 sequence (P62942 2-108 E32G/F37V/R72G/K106E)": "as above", "test": "Regulation of Her2.28z.FKBP CAR expression by shield-1 (protein L stain, FACS)", "type": "cell-based", "conditions": "0.1 uM or 1 uM, 24 hours after addition of drug", "description": "The FKBP12 DD domain was fused to the far c-terminus of the Her2.28z CAR. T cells were transduced with lentivirus to express the Her2.28z.FKBP. […] 24 hours after addition of drug, CAR T cells were stained with protein L and CAR expression was assessed via FACS. Both the percentage of CAR+ cells (quantified in the histograms) as well as CAR MFI are increased upon incubation with either 0.1 uM or 1 uM Shield-1 (S1)."}, "GD2.28z.FKBP CAR T cells [2]": {"test_system": "GD2.28z.FKBP CAR T cells", "test": "Exhaustion phenotype of GD2.28z.FKBP CAR T cells after S1 removal (FACS)", "type": "cell-based, human", "excerpt": "Since tonic signaling is highly dependent upon GD2-CAR receptor levels, precise control of CAR expression levels also precisely regulates levels of tonic signaling. Drug regulated control of levels of CAR expression therefore also allowed modulation of the duration and intensity of GD2.28z tonic signaling. […] This is most well illustrated by measuring levels of PD-1/TIM-3/LAG-3 triple expressing cell which is highly specific for dysfunctional, exhausted T cells. […] Similar results were obtained on day 14 for cells in which S1 was removed from culture medium on day 7 or day 10 (not shown)."}, "[3]": {"test_system": "HA-GD2.28z.FKBP CAR T cells", "test": "Sorted PD-1/TIM-3/LAG-3 triple positive HA-GD2.28z.FKBP CAR T cells re-cultured with or without S1 (FACS, co-culture)", "type": "cell-based, human", "excerpt": "Functional studies by several groups, including our lab have verified that co-expression of PD-1, TIM-3, and LAG-3 (triple positive, TP) denotes an exhausted cell subset that is highly dysfunctional. We thus sought to analyze whether cessation of tonic signaling in this cell subset could reverse their phenotype and restore their ability to secrete IL-2 in response to tumor antigen. […] On day 10 post-activation, HA-GD2.28z.FKBP CAR T cells that had experienced continuous S1 treatment were sorted in order to isolate a pure PD-1/TIM-3/LAG-3 exhausted population. “Triple positive” exhausted cells were then re-cultured either with or without S1 to test whether removal of tonic signaling could restore their function. FACS and co-culture assays were conducted 4 days later."}, "[4]": {"test_system": "HA-GD2.28z.FKBP CAR T cells", "test": "Western blot of CAR CD3-zeta phosphorylation (tonic signaling)", "type": "cell-based, human", "conditions": "cultured in the absence of S1 (CAR Always OFF)", "excerpt": "This phenotype was also reversible, as indicated by the lack of CD3-zeta phosphorylation in DD-CAR T cells that were initially cultured with S1, but then had drug removed on day 7 of the culture (FIG. 16, CAR OFF D7)."}, "HA-GD2.28z.FKBP": {"test_system": "HA-GD2.28z.FKBP", "test": "Exhaustion marker co-expression on HA-GD2.28z.FKBP CAR T cells", "type": "cell-based, human", "conditions": "upon removal of shield-1 from the culture medium", "description": "When assessing IL-2 and IFNγ, cells were surface stained, then fixed and permeablized (eBioscience) prior to incubation with intracellular antibodies.\nT cells were removed from culture, fixed in 2% PFA for 10 minutes at room temperature, pelleted and frozen at −80C. Upon thawing, each sample was barcoded with a 20-plex Pd harcoding kit (FIuidigm). Cell samples were then pooled and stained for surface marker expression with heavy-metal conjugated antibodies for 30 minutes at room temperature. Cells were then permeablized in methanol and subsequently stained with heavy metal-conjugated anti-human T-bet (4B10, Biolegend) and anti-human Blimp-1 (ROS195G, Biolegend) for 30 minutes at room temperature. Samples were run on a Helios mass cytometer (Fluidigm) and analyses were complete using Cytobank online software.\nIt was next determined whether the prevention or reversal of tonic signaling in HA-GD2.28z.FKBP-expressing CAR T cells altered their exhaustion phenotype."}, "[5]": {"conditions": "S1 removed day 7 or 10, read day 14, vs continuous S1"}}}
{"compound": "COc1cc(Cc2cnc(N)nc2N)cc(OC)c1OC", "note": "[trimethoprim]", "values": [{"measurement": "CD69 surface expression of CAR T cells", "setting": "NALM6-GL-GD2", "result": "higher CD69 surface expression"}]}
{"compound": "nivolumab: anti-PD-1 checkpoint inhibitor", "values": [{"measurement": "IL-2 secretion", "setting": "GD2.28z.FKBP CAR T cells [1]; continuous S1 + nivolumab, day 10, sustained until day 14", "result": "only modest augmentation of IL-2 secretion"}]}
{"compound": "CC[C@H](C(=O)N1CCCC[C@H]1C(=O)O[C@H](CCc1ccc(OC)c(OC)c1)c1cccc(OCCN2CCOCC2)c1)c1cc(OC)c(OC)c(OC)c1", "note": "[shield-1]", "values": [{"measurement": "regulation of CAR surface expression", "setting": "GD2.28z.FKBP CAR", "result": "rapidly and dose-dependently regulated"}, {"measurement": "CAR MFI", "setting": "Her2.28z.FKBP", "result": "increased"}, {"measurement": "percentage of CAR+ cells", "setting": "Her2.28z.FKBP", "result": "increased"}, {"measurement": "apoptosis (annexin V staining)", "setting": "GD2.28z.FKBP CAR T cells [2]; [5]", "result": "prevention of apoptosis"}, {"measurement": "memory markers (CD62L)", "setting": "GD2.28z.FKBP CAR T cells [2]; [5]", "result": "maintenance of memory markers"}, {"measurement": "canonical exhaustion marker expression", "setting": "GD2.28z.FKBP CAR T cells [2]; S1 removed day 7 post-activation, read day 10", "result": "reverses canonical exhaustion marker expression to control levels"}, {"measurement": "IL-2 secretion", "setting": "GD2.28z.FKBP CAR T cells [1]; S1 removed day 7, vs continuous S1", "result": "superior IL-2 secretion"}, {"measurement": "IL-2 secretion of exhausted T cells after rest", "setting": "GD2.28z.FKBP CAR T cells [1]; S1 removed day 10, rested 4 days, day 14 ELISA", "result": "reinvigorated"}, {"measurement": "augmentation of IL-2 secretion", "setting": "GD2.28z.FKBP CAR T cells [1]; cultured without S1, S1 added back just prior to co-culture, vs continuous S1", "result": "5-10 fold"}, {"measurement": "expression of exhaustion markers", "setting": "[3]; 4 days without S1, CD4+ and CD8+ CAR T cells", "result": "far less expression of exhaustion markers"}, {"measurement": "increase in IL-2 secretion", "setting": "[3]; removal of S1 vs continuous S1 days 10-14", "result": 2, "unit": "fold"}, {"measurement": "CD3-zeta phosphorylation", "setting": "[4]", "result": "absent"}, {"measurement": "co-expression of canonical exhaustion markers", "setting": "HA-GD2.28z.FKBP", "result": "rapidly downregulated"}]}
